One may read the Kb as the equilibrium dissociation constant of an antagonist, usually derived from a functional assay. High values mean a less potent antagonist, low ones a more potent antagonist.

A short description of assay [1]: Effective bladder capacity increasing effect of compound (0.3 mg/kg i.v.) expressed as the ratio of increase in effective bladder capacity compared to saline treated animals in vivo. The format is functional, Cavia porcellus.
Assay [2] concerns the target Substance-P receptor (Cavia porcellus) (UniProt P30547). The assay is described as follows: Antagonist activity against tachykinin receptor 1 activity in guinea pig ileum in vitro. The assay is classed as functional, tissue-based.

Substance-P receptor (Cavia porcellus), sequence (P30547 whole entry): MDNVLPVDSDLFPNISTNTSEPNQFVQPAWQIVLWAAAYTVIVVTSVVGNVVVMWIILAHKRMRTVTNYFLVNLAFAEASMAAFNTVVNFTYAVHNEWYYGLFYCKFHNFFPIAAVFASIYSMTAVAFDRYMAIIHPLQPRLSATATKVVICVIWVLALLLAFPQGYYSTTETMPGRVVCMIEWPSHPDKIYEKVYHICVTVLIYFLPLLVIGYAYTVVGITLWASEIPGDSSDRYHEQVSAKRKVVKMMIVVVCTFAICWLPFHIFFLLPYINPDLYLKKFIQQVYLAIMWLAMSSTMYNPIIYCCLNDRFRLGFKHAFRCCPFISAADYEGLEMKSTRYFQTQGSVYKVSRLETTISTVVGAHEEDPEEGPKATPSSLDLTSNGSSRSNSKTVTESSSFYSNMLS

On to `Cc1ccccc1-c1cc(N2CCC(N3CCCC3)CC2)nc2c1C(=O)N(Cc1cc(C(F)(F)F)cc(C(F)(F)F)c1)CCCO2`, for which, in assay [1], the Effect turned out to be 24.2%. `Cc1ccccc1-c1nc(N2CCC(N3CCCC3)CC2)cc2c1C(=O)N(Cc1cc(C(F)(F)F)cc(C(F)(F)F)c1)CCCO2`: the Effect in assay [1] turned out to be 3.97%. Further, the Kb in assay [2] stood at 0.339 nM. The matching figures for `Cc1ccccc1-c1nc(N2CCC(N3CCCC3)CC2)nc2c1C(=O)N(Cc1cc(C(F)(F)F)cc(C(F)(F)F)c1)CCCO2`: 33.4% and 0.166 nM. Turning to `Cc1ccc(-c2c3n(c(=O)c4ncccc24)CC[C@@H](C)CN(Cc2cc(C(F)(F)F)cc(C(F)(F)F)c2)C3=O)cc1`, the Effect in assay [1] is on record as 12%. Also, in assay [2], the antagonist equilibrium constant (Kb) worked out at 0.27 nM.

The values are drawn from ChEMBL document CHEMBL1142020, “2-substituted-4-aryl-6,7,8,9-tetrahydro-5H-pyrimido[4,5-b][1,5]oxazocin-5-one as a structurally new NK1 antagonist” (2005).
